Results reported in patent US20240189285A1, “COMPOSITION AND METHOD FOR ENHANCING MITOCHONDRIAL BIOGENESIS AND ACTIVATING PGC-1A” (NANJING NUTRABUILDING BIO-TECH CO., LTD., priority 2021, published 2024).

Columns and labels:
Assay type in all cases: cell-based
PGC-1α = PGC-1α protein expression by Western blot in target cells
Protocol: (§1) Target cells (endothelial cells, C2C12 skeletal muscle cells, etc.) are obtained according to conventional methods in the art.
(§2) The target cells (endothelial cells, C2C12 skeletal muscle cells, etc.) are divided into groups A, B, C and D. B and D group cells were cultured with 50 μM L-Ergothioneine for 12 hours, and A and C groups were not cultured with Ergothioneine but only with the usual nutrient solution for 12 hours. Then a certain concentration of H2O2 was used to cause C and D group cells damage, no H2O2 was used on A and B groups. Then PGC-1α protein expression and Sirt1 protein level were analyzed by Western blot.

[1] = tested on: target cells (endothelial cells, C2C12 skeletal muscle cells, etc.); assay: Mitochondrial biogenesis in vitro: mitochondrial mass (flow cytometry, fluorescent microscopy) and mtDNA copy number (quantitative PCR)
Protocol: as §1
as §2, with “were” for “are”, “hours.” for “hours, and”, “Mitochondrial biogenesis was measured by quantifying both mitochondrial mass” for “Then PGC-1α protein expression”, “mitochondrial DNA (mtDNA) contents. Mitochondrial mass was measured by flow cytometry and fluorescent microscopy, mtDNA copy number was” for “Sirt1 protein level were”, “quantitative PCR.” for “Western blot.”

Sirt1 = Sirt1 protein level by Western blot in target cells
Protocol: as §1, §2

[2] = group B: 50 μM L-Ergothioneine for 12 hours, no H2O2, untreated group A = 100

SMILES: C[N+](C)(C)[C@@H](Cc1c[nH]c(=S)[nH]1)C(=O)[O-] [L-Ergothioneine]
- PGC-1α level (Western blot) (PGC-1α; group B: 50 μM L-Ergothioneine for 12 hours, no H2O2, untreated group A about 0.0046): ~0.005
- PGC-1α level (Western blot) (PGC-1α; group D: 50 μM L-Ergothioneine for 12 hours, then H2O2 damage, H2O2-only group C about 0.0036): ~0.0043
- Relative mitochondrial mass [1, 2]: 112%
- Relative mtDNA content [1, 2]: 118%
- Relative mitochondrial mass ([1]; group D: 50 μM L-Ergothioneine for 12 hours, then H2O2 damage, H2O2-only group C = 78): 90%
- Relative mtDNA content ([1]; group D: 50 μM L-Ergothioneine for 12 hours, then H2O2 damage, H2O2-only group C = 89): 93%
- Sirt1 level (Western blot) (Sirt1; group B: 50 μM L-Ergothioneine for 12 hours, no H2O2, untreated group A about 0.79): ~0.85
- Sirt1 level (Western blot) (Sirt1; group D: 50 μM L-Ergothioneine for 12 hours, then H2O2 damage, H2O2-only group C about 0.65): ~0.75
